For test [1], the system named is TLR2 induced IL-6 in peripheral blood mononuclear cells (PBMCs). In words: PBMC TLR2 Induced IL-6 Assay. Format: cell-based, human. To be noted: human PBMCs, 10 μg/ml lipoteichoic acid for 5 hours, IL-6 by ELISA, value without asterisk, read-out: Cell IC50. Here is the method: Peripheral blood mononuclear cells (PBMCs) were isolated from human blood containing the anti-coagulant EDTA (2.5 mM) by centrifugation over a FICOLL® gradient. PBMCs (250000 cells/well) were cultured in assay media (RPMI with 10% heat inactivated FCS) with compounds for 30 minutes at 37° C. in a 5% CO2 incubator. Following pretreatment with compounds, cells were stimulated for 5 hours with 10 μg/ml lipoteichoic acid (Invivogen, San Diego, Calif.), a TLR2 agonist. At the end of the culture, plates were centrifuged at 1800 rpm for 10 minutes to pellet the cells. Supernatants were harvested and analyzed for IL-6 levels by ELISA (BD Biosciences, San Jose, Calif.). Inhibition was calculated as either an IC50 or EC50. EC50 determinations are indicated with an asterisk.

The target in a further test is IRAK4 (Homo sapiens (Human), UniProt Q9NWZ3). In words: IRAK4 Inhibition Assay. The format is biochemical. As to conditions: ATP 500 μM; IRAK4 0.6 nM; 60 min at room temperature. Here is the method: The assays were performed in U-bottom 384-well plates. […] The reaction was initiated by the combination of IRAK4 with substrates and test compounds. The reaction was incubated at room temperature for 60 min. and terminated by adding 45 μL of 35 mM EDTA to each sample. The reaction mixture was analyzed on the Caliper LABCHIP® 3000 (Caliper, Hopkinton, Mass.) by electrophoretic separation of the fluorescent substrate and phosphorylated product.

Like-named read-outs stand apart in the source and are kept apart here.

As a reminder, the IC50 is the concentration needed to halve the response being measured.

Chain of IRAK4 (Q9NWZ3 whole entry, species assumed): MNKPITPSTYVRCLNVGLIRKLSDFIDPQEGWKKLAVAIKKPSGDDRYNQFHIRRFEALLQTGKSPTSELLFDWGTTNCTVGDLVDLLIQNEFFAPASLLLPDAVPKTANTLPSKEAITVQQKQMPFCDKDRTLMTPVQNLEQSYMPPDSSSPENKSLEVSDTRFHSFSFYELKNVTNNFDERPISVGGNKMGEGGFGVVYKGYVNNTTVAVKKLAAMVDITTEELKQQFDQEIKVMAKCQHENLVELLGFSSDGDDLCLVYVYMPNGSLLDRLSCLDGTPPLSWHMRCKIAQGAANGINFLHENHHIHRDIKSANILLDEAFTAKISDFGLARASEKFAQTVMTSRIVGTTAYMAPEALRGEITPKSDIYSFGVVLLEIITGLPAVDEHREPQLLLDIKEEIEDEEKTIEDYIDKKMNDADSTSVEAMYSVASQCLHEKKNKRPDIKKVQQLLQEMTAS

Turning to `CC(O)([C@H](F)CNC(=O)c1cnc(Nc2ccc3ncsc3c2)cc1NC1CC1)C(F)(F)F` (stereo partly drawn) [Example 19], the IC50 in test [1] was found to be 177 nM; at IRAK4 it was 4.3 nM.

Turning to `CC(O)([C@H](F)CNC(=O)c1cnc(Nc2ccc3ncsc3c2)cc1NC1CC1)C(F)(F)F` (stereo partly drawn) [Example 20], the IC50 came to 562 nM in test [1] and 4.9 nM on IRAK4.

Take `CC(C)Nc1cc(Nc2ccc3ncoc3c2)ncc1C(=O)NC[C@@H](F)C(O)C(C)C` (stereo partly drawn) [Example 24]: the IC50 in test [1] (Homo sapiens, PBMC, 5 h) was 468 nM; at IRAK4, 4 nM.

As to `CC(C)C(O)[C@H](F)CNC(=O)c1cnc(Nc2ccc3ncsc3c2)cc1NC1CC1` (stereo partly drawn) [Example 25], the results for the IC50 (in test [1]; at IRAK4) were 60 nM and 3.5 nM, respectively.

Take `CC(C)C(O)[C@H](F)CNC(=O)c1cnc(Nc2ccc3ncsc3c2)cc1NC1CC1` (stereo partly drawn) [Example 26]: the IC50 turned out to be 121 nM in test [1] and 7.3 nM on IRAK4.

As for `CC(C)C(O)C(F)CNC(=O)c1cnc(Nc2ccc3ncsc3c2)cc1NC(c1ccccc1)C(O)CO` (stereo not drawn) [Example 27], the IC50 in test [1] (Homo sapiens, PBMC, 5 h) stood at 86 nM; on IRAK4 it was 3 nM.

For the molecule `CC(O)[C@H](F)CNC(=O)c1cnc(Nc2ccc3ncsc3c2)cc1NC1CCCC1` (stereo partly drawn) [Example 28], the IC50 in test [1] (Homo sapiens, PBMC, 5 h) was determined as 195 nM; at IRAK4 it was 7.8 nM.

With `CC(O)[C@H](F)CNC(=O)c1cnc(Nc2ccc3ncsc3c2)cc1NC1CCCC1` (stereo partly drawn) [Example 29], the figures for the IC50 (in test [1]; at IRAK4) were 128 nM and 9.2 nM, respectively.

On to `CC(C)(O)C1CC(Nc2cc(Nc3ccc4ncsc4c3)ncc2C(=O)NC[C@@H](F)C(O)(C2CC2)C(F)(F)F)C1` (stereo partly drawn) [Example 32], for which the IC50 in test [1] (Homo sapiens, PBMC, 5 h) was found to be 511 nM; at IRAK4, 15 nM.

Take `CC(C)(O)[C@H](F)CNC(=O)c1cnc(Nc2ccc3ncsc3c2)cc1NC1CCCC1` [Example 33, (R)-6-(benzo[d]thiazol-6-ylamino)-4-(cyclopentylamino)-N-(2-fluoro-3-hydroxy-3-methylbutyl)nicotinamide]: the IC50 in test [1] (Homo sapiens, PBMC, 5 h) was 64 nM; at IRAK4 it was 3.7 nM.

Turning to `CC(C)Nc1cc(Nc2ccc3ncsc3c2)ncc1C(=O)NC[C@@H](F)C(C)(C)O` [Example 35], the IC50 in test [1] (Homo sapiens, PBMC, 5 h) stood at 482 nM; at IRAK4 it was 2.6 nM.

Take `CC(C)(O)[C@H](F)CNC(=O)c1cnc(Nc2ccc3nsnc3c2)cc1NC1CCCC1` [Example 36]: the IC50 stood at 893 nM in test [1] (Homo sapiens, PBMC, 5 h) and 8.2 nM on IRAK4.

As for `CC(C)(O)[C@H](F)CNC(=O)c1cnc(Nc2ccc3ncsc3c2)cc1NC1CCC(O)C1` (stereo partly drawn) [Example 37], the IC50 in test [1] (Homo sapiens, PBMC, 5 h) turned out to be 297 nM; at IRAK4 it was 3.9 nM.

For the molecule `CC(C)(O)[C@H](F)CNC(=O)c1cnc(Nc2ccc3ncsc3c2)cc1NC1CCC(O)C1` (stereo partly drawn) [Example 38], the IC50 was 426 nM in test [1] and 5.2 nM on IRAK4.

For the molecule `CC(CO)Nc1cc(Nc2ccc3ncsc3c2)ncc1C(=O)NC[C@@H](F)C(C)(C)O` (stereo partly drawn) [Example 39], the IC50 in test [1] (Homo sapiens, PBMC, 5 h) is 503 nM; at IRAK4, 5.3 nM.

In the case of `CC(C)Nc1cc(Nc2ccc3nsnc3c2)ncc1C(=O)NC[C@@H](F)C(C)(C)O` [Example 41], the IC50 in test [1] (Homo sapiens, PBMC, 5 h) stood at 318 nM; on IRAK4 it was 3.5 nM.

Take `CC(C)(O)[C@H](F)CNC(=O)c1cnc(Nc2ccc3ncsc3c2)cc1NC1CC1` [Example 42]: the IC50 in test [1] (Homo sapiens, PBMC, 5 h) is 228 nM; on IRAK4, 2.7 nM.

Take `CC(C)Nc1cc(Nc2ccc3nonc3c2)ncc1C(=O)NC[C@@H](F)C(C)(C)O` [Example 45]: the IC50 in test [1] (Homo sapiens, PBMC, 5 h) was determined as 887 nM; at IRAK4 it was 7.5 nM.

For the molecule `CC(C)Nc1cc(Nc2ccc3ncncc3c2)ncc1C(=O)NC[C@@H](F)C(C)(C)O` [Example 48], the half-maximal inhibitory concentration (IC50) in test [1] (Homo sapiens, PBMC, 5 h) amounted to 511 nM; on IRAK4 it was 3.1 nM.

For `CC(C)(O)[C@H](F)CNC(=O)c1cnc(Nc2ccc3ncsc3c2)cc1N[C@@H](c1ccccc1)[C@H](O)CO` [Example 49], the IC50 in test [1] (Homo sapiens, PBMC, 5 h) turned out to be 444 nM; at IRAK4, 3.4 nM.

For `CC1(O)CCC(Nc2cc(Nc3ccc4ncsc4c3)ncc2C(=O)NC[C@@H](F)C(C)(C)O)C1` (stereo partly drawn) [Example 50], the IC50 in test [1] (Homo sapiens, PBMC, 5 h) amounted to 571 nM; at IRAK4, 6.8 nM.

With `CC(C)(O)[C@H](F)CNC(=O)c1cnc(Nc2ccc3ncsc3c2)cc1Nc1ccc(OC(F)F)cc1` [Example 51], the IC50 in test [1] (Homo sapiens, PBMC, 5 h) was 334 nM; on IRAK4 it was 3.7 nM.

In the case of `CC(C)(O)[C@H](F)CNC(=O)c1cnc(Nc2ccc3ncsc3c2)cc1NC1CCOCC1` [Example 52], the IC50 in test [1] (Homo sapiens, PBMC, 5 h) was 116 nM; on IRAK4, 2.7 nM.

In the case of `CC(C)(O)[C@H](F)CNC(=O)c1cnc(Nc2ccc3ncsc3c2)cc1NC1CCCOC1` (stereo partly drawn) [Example 53], the IC50 in test [1] (Homo sapiens, PBMC, 5 h) is 230 nM; at IRAK4, 5.4 nM.

For the molecule `CC(C)(O)[C@H](F)CNC(=O)c1cnc(Nc2ccc3ncsc3c2)cc1NC1CCCOC1` (stereo partly drawn) [Example 54], the results for the IC50 (in test [1]; at IRAK4) were 258 nM and 3.6 nM, respectively.

As to `CC(C)Nc1cc(Nc2ccc3nccnc3c2)ncc1C(=O)NC[C@@H](F)C(C)(C)O` [Example 55], the IC50 in test [1] (Homo sapiens, PBMC, 5 h) stood at 349 nM; at IRAK4 it was 5.9 nM.

For `CC(C)(O)[C@H](F)CNC(=O)c1cnc(Nc2ccc3ncsc3c2)cc1Nc1cccc(CO)c1` [Example 57], the IC50 in test [1] (Homo sapiens, PBMC, 5 h) was found to be 314 nM; at IRAK4, 5.2 nM.

`CC(C)(O)[C@H](F)CNC(=O)c1cnc(Nc2ccc3ncccc3c2)cc1NC1CC1` [Example 58]: the IC50 was 545 nM in test [1] (Homo sapiens, PBMC, 5 h) and 7 nM at IRAK4.

As to `CC(C)(O)[C@H](F)CNC(=O)c1cnc(Nc2ccc3ncsc3c2)cc1Nc1cccc(CCO)c1` [Example 59], the IC50 in test [1] (Homo sapiens, PBMC, 5 h) was found to be 99 nM; on IRAK4, 6 nM.

With `CC(C)(O)[C@H](F)CNC(=O)c1cnc(Nc2ccc3ncsc3c2)cc1N[C@H]1CC[C@H](N)CC1` [Example 61], the IC50 in test [1] (Homo sapiens, PBMC, 5 h) turned out to be 257 nM; at IRAK4, 7 nM.

For `CC(C)(O)[C@H](F)CNC(=O)c1cnc(Nc2ccc3ncsc3c2)cc1N[C@H](CO)c1ccccc1` [Example 63], the IC50 amounted to 632 nM in test [1] (Homo sapiens, PBMC, 5 h) and 8.6 nM on IRAK4.

Consider `CC(C)(O)C1CC(Nc2cc(Nc3ccc4ncsc4c3)ncc2C(=O)NC[C@@H](F)C(C)(C)O)C1` (stereo partly drawn) [Example 64], for which the IC50 came to 440 nM in test [1] (Homo sapiens, PBMC, 5 h) and 5.2 nM at IRAK4.

As for `CC(C)(O)[C@H](F)CNC(=O)c1cnc(Nc2ccc3ncsc3c2)cc1N[C@@H](c1cc(F)cc(F)c1)[C@H](O)CO` [Example 65], the IC50 in test [1] (Homo sapiens, PBMC, 5 h) came to 170 nM; on IRAK4, 3.9 nM.

Turning to `CC(C)(O)[C@H](F)CNC(=O)c1cnc(Nc2ccc3ncsc3c2)cc1N[C@H]1CCC(CCO)C1` (stereo partly drawn) [Example 66], the IC50 is 58 nM in test [1] and 2.3 nM at IRAK4.

For the molecule `CC(C)(O)[C@H](F)CNC(=O)c1cnc(Nc2ccc3ncsc3c2)cc1N[C@H]1CCC(CCO)C1` (stereo partly drawn) [Example 67], the values for the IC50 (in test [1]; at IRAK4) were 248 nM and 6.8 nM, respectively.

Regarding `CC(C)(O)[C@H](F)CNC(=O)c1cnc(Nc2ccc3ncsc3c2)cc1N[C@H]1CCC(CCO)C1` (stereo partly drawn) [Example 68], the IC50 in test [1] came out at 231 nM; at IRAK4 it was 4.7 nM.

As for `CC(C)(O)[C@H](F)CNC(=O)c1cnc(Nc2ccc3ncsc3c2)cc1NC1CC(CO)C1` (stereo partly drawn) [Example 69], the IC50 in test [1] (Homo sapiens, PBMC, 5 h) amounted to 365 nM; at IRAK4, 3.4 nM.

Take `CCOC(=O)C1CC(Nc2cc(Nc3ccc4ncsc4c3)ncc2C(=O)NC[C@@H](F)C(C)(C)O)C1` (stereo partly drawn) [Example 70]: the IC50 in test [1] (Homo sapiens, PBMC, 5 h) amounted to 530 nM; on IRAK4, 8.7 nM.

Turning to `CC(C)(O)[C@H](F)CNC(=O)c1cnc(Nc2ccc3nccnc3c2)cc1NC1CCCOC1` (stereo partly drawn) [Example 71], the IC50 in test [1] (Homo sapiens, PBMC, 5 h) came to 415 nM; at IRAK4 it was 13.8 nM.
